These results are taken from patent publication US20260317344A1, “EGFR INHIBITORS FOR TREATING DISEASE” (BLOSSOMHILL THERAPEUTICS, INC., priority 2023, published 2026).

The test system of assay [1] is BaF3 cells with engineered EGFR L858R/C797S. Briefly: 3-Day CellTiter Glo (CTG) cell proliferation assay, BaF3 EGFR L858R/C797S. In kind it is cell-based. Particulars: Mus musculus, 3-day CTG proliferation, 72 hours. In short, it runs like this: (§1)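 Luminescent ATP read-out (CellTiter-Glo 2.0) after 72 h compound exposure gives IC50 values. BaF3 transgenic cells, one thousand per well, received a nine-dose series and were kept at 37 °C under 5% CO2.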
In general terms: Cellular ATP, detected with luciferase, serves as a proxy for viable cell number.

For assay [2], the system named is NCI-H1975 cells. The assay can be described thus: 5-Day CellTiter Glo (CTG) cell proliferation assay, NCI-H1975. In kind it is cell-based. The following applies: Homo sapiens; NCI-H1975 cells (L858R/T790M EGFR), 5-day CTG proliferation, 120 hours; read-out: H1975 IC50. In short, it runs like this:
(§2)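 Luminescent ATP signal (CellTiter-Glo 2.0) after 120 hours of compound exposure gave IC50 values. PC-9 and HCC827 harbour EGFR d746-750; NCI-H1975 harbours L858R/T790M.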

Assay [3] concerns the target T1, pEGFR, A431 cells (wildtype EGFR) (Homo sapiens, UniProt P00533).
T1 construct: pEGFR (Tyr1068) TR-FRET
Briefly: Cellular EGFR phosphorylation assay (LANCE Ultra TR-FRET) in A431 cells. In kind it is cell-based. Particulars: 4 hours at 37° C., 40 ng/mL EGF for the final 10 minutes, read-out: A431 pEGFR IC50. In short, it runs like this: (§3)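 PC-9 and NCI-H1975 cells (50 thousand/well) or A431 cells (30 thousand/well) treated next day for 4 h at 37° C with a 9-dose 3-fold titration; A431 stimulated with 40 ng/mL EGF for the final 10 min. Lysate phospho-EGFR (Tyr1068) read by LANCE Ultra TR-FRET; IC50 derived.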

Assay [4] deals with T2, pEGFR, PC-9 cells (d746-750 EGFR) (Homo sapiens, UniProt P00533, DEL746-750).
T2 construct: pEGFR (Tyr1068) TR-FRET
Briefly: Cellular EGFR phosphorylation assay (LANCE Ultra TR-FRET) in PC-9 cells. Particulars: 4 hours at 37° C., read-out: PC-9 pEGFR IC50. In kind it is cell-based. An outline of the steps:
as §3
Background: In TR-FRET formats the signal depends on donor and acceptor labels being close together.

The target of assay [5] is EGFR (L858R/T790M/C797S) (Homo sapiens, UniProt P00533, C797S/L858R/T790M). Briefly: HotSpot radiometric kinase assay, inhibition of EGFR L858R/T790M/C797S mutant. Particulars: 33P ATP, room temperature, 120 m. The class given is biochemical. An outline of the steps:
(§4)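 Kinase/substrate pairs in 20 mM HEPES pH 7.5, 10 mM MgCl2, 1 mM EGTA, 0.02% Brij35, 0.02 mg/ml BSA, 0.1 mM Na3VO4, 2 mM DTT, 1% DMSO, preincubated ~20 min with compound. Reaction started with ATP/33P-ATP ([…]), run 120 min at room temperature; phosphorylation read by P81 filter binding, IC50 from curve fits.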

For assay [6], the system named is BaF3 cells with engineered EGFR d746-750/T790M. The assay can be described thus: 3-Day CellTiter Glo (CTG) cell proliferation assay, BaF3 EGFR d746-750/T790M. In kind it is cell-based. The following applies: Mus musculus; BaF3 EGFR d746-750/T790M cells, 3-day CTG proliferation, 72 hours. An outline of the steps: as §1
The target of assay [7] is T3, pEGFR, NCI-H1975 cells (L858R/T790M EGFR) (Homo sapiens, UniProt P00533, L858R/T790M).
T3 construct: pEGFR (Tyr1068) TR-FRET
The assay can be described thus: Cellular EGFR phosphorylation assay (LANCE Ultra TR-FRET) in NCI-H1975 cells. The class given is cell-based. Particulars: 4 hours at 37° C., read-out: H1975 pEGFR IC50. In short, it runs like this: as §3

For assay [8], the system named is BaF3 cells with engineered EGFR L858R/T790M/C797S. The assay can be described thus: 3-Day CellTiter Glo (CTG) cell proliferation assay, BaF3 EGFR L858R/T790M/C797S. In kind it is cell-based. Particulars: Mus musculus, 3-day CTG proliferation, 72 hours. In short, it runs like this:
as §1

The target in assay [9] is EGFR (D746-750/C797S) (Homo sapiens, UniProt P00533, C797S/DEL746-750). The assay can be described thus: HotSpot radiometric kinase assay, inhibition of EGFR 746-750/C797S mutant. The class given is biochemical. The following applies: 33P ATP, room temperature, 120 m. An outline of the steps: as §4
The subject of assay [10] is PC-9 cells. The assay can be described thus: 5-Day CellTiter Glo (CTG) cell proliferation assay, PC-9. The class given is cell-based. Particulars: Homo sapiens; PC-9 cells (d746-750 EGFR), 5-day CTG proliferation, 120 hours; read-out: PC-9 IC50. An outline of the steps:
as §2

Assay [11] addresses EGFR (D746-750) (Homo sapiens, UniProt P00533, DEL746-750). Briefly: HotSpot radiometric kinase assay, inhibition of EGFR 746-750 mutant. In kind it is biochemical. Particulars: 33P ATP, room temperature, 120 m. An outline of the steps: as §4
The subject of assay [12] is HCC827 cells. The assay can be described thus: 5-Day CellTiter Glo (CTG) cell proliferation assay, HCC827. In kind it is cell-based. Particulars: Homo sapiens; HCC827 cells (d746-750 EGFR), 5-day CTG proliferation, 120 hours; read-out: HCC827 IC50. In short, it runs like this: as §2
The target in assay [13] is EGFR (D770_N771insNPG) (Homo sapiens, UniProt P00533, INS770NPG). Briefly: HotSpot radiometric kinase assay, inhibition of EGFR (D770_N771insNPG) mutant. In kind it is biochemical. The following applies: 33P ATP, room temperature, 120 m. In short, it runs like this:
as §4

SMILES strings stand for the structures.

T3 sequence (P00533 25-1210 T790M/L858R): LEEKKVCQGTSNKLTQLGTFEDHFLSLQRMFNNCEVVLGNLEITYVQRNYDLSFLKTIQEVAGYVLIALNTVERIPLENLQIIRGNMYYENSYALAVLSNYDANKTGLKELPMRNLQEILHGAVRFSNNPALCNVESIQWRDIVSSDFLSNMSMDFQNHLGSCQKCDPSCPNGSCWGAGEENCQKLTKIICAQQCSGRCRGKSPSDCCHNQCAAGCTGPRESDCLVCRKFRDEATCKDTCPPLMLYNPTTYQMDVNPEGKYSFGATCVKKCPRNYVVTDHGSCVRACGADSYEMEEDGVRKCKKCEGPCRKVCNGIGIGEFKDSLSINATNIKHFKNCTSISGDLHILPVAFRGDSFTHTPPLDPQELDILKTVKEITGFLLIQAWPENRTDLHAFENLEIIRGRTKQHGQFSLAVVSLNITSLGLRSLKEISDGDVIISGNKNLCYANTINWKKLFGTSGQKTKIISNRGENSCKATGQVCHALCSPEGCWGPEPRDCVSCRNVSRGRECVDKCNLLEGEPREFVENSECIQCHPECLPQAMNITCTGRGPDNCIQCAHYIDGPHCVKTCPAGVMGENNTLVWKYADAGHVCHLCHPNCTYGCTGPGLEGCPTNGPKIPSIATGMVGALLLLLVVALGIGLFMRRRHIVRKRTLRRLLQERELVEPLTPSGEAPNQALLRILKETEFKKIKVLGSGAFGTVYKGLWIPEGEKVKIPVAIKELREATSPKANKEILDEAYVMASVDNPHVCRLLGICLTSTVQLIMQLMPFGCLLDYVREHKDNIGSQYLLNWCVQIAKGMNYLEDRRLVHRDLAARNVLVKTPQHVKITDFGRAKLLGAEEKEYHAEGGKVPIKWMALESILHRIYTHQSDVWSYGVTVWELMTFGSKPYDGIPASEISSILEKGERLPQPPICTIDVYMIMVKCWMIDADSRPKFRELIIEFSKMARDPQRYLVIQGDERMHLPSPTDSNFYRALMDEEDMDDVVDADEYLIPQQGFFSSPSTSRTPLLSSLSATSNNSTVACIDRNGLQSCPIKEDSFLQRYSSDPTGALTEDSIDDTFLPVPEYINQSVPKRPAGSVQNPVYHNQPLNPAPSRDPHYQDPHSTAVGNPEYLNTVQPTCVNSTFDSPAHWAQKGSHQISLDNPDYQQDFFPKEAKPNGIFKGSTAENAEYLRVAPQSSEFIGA
T1 sequence (P00533 25-1210): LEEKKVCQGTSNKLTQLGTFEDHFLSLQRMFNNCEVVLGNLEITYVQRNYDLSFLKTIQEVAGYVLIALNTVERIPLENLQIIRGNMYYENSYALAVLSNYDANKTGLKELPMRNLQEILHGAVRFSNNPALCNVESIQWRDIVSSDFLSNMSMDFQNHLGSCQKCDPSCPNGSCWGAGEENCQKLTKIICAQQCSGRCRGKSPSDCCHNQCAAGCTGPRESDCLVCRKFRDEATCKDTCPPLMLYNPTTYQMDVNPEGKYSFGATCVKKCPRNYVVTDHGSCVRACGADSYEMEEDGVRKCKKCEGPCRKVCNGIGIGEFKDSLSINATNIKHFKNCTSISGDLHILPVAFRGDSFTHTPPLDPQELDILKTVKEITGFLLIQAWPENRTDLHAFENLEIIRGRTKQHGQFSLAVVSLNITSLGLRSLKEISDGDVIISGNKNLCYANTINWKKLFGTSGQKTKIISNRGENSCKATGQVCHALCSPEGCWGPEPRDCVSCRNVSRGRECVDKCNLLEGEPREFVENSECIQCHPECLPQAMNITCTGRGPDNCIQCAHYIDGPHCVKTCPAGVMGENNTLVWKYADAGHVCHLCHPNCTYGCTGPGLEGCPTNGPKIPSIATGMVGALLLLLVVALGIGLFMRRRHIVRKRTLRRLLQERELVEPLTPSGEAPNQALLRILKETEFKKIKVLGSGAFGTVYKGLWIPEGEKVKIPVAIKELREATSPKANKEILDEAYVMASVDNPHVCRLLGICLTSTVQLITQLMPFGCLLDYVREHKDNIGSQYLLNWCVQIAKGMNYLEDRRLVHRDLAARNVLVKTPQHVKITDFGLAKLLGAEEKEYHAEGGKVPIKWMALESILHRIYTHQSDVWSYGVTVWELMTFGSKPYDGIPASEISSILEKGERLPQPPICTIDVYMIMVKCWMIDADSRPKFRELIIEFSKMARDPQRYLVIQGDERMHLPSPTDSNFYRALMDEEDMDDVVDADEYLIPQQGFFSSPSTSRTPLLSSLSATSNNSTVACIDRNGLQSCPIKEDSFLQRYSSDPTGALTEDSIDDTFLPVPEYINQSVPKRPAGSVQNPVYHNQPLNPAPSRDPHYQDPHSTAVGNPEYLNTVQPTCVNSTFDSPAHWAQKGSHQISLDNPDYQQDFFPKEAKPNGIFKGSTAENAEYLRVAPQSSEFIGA
T2 sequence (P00533 with tags, fused parts or gaps DEL746-750): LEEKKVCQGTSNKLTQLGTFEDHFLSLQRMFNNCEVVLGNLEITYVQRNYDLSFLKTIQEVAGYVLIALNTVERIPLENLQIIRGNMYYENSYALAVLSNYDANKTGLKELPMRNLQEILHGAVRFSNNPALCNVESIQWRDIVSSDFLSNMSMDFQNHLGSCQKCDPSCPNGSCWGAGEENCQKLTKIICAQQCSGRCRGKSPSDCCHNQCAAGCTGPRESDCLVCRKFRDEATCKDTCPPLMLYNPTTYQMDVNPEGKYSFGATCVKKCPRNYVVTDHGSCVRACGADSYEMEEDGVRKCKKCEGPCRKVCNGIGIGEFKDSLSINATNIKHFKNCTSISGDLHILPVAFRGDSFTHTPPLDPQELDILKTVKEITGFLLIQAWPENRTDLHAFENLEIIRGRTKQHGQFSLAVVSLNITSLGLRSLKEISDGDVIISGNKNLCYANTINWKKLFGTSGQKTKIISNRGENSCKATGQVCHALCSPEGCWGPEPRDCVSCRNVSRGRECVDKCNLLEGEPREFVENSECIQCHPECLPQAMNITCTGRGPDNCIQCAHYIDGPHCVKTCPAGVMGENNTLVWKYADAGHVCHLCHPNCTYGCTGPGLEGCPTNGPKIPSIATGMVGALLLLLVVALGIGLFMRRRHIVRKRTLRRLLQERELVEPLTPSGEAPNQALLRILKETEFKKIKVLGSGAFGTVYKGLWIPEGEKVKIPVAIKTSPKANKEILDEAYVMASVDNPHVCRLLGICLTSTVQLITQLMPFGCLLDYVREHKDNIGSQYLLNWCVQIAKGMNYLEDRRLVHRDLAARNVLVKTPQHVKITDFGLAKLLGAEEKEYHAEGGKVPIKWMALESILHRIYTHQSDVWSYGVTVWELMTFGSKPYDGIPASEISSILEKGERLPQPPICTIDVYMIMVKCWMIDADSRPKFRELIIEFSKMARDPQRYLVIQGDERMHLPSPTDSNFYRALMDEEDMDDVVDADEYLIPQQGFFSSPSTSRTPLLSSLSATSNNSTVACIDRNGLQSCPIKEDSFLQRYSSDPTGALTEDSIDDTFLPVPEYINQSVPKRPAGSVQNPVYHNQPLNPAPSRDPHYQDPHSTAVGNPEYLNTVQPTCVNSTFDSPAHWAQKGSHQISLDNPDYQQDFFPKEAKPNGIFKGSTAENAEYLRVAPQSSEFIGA
Sequence of EGFR (D746-750) (P00533 with tags, fused parts or gaps DEL746-750): as above

Turning to `Cc1nn(C)c2c1-c1cc3c(n[nH]c3cn1)/C=C/c1c(OCC#N)nn(CCO)c1CN1CCC[C@@H]1C(C)O2` (single isomer, unassigned) [Ex. 50], the IC50 (commonly the midpoint of a concentration-inhibition curve) in assay [1] was 0.12 nM; in [2], 5.55 nM; in [3] it was 19.3 nM; in [4] it was 1.07 nM; in assay [5], 0.39 nM; in assay [6], 2.99 nM. For the same molecule, the IC50 in [7] worked out at 3.43 nM; in assay [8] it was 1.14 nM; in assay [9] it was 0.68 nM; in assay [10], 0.51 nM; in assay [11], 0.19 nM; in [12], 0.41 nM. This molecule yielded an IC50 in assay [13] of 0.21 nM.

Take `CCOc1nn(CCO)c2c1/C=C/c1n[nH]c3cnc(cc13)-c1c(C)nn(C)c1OC[C@H](C)N(C(C)C)C2` [Ex. 2, 2-[(11S,17E)-16-ethoxy-6,8,11-trimethyl-12-(propan-2-yl)-2,8,10,11,12,13-hexahydro-14H-5,3-(azenometheno)tripyrazolo[3,4-f:3′,4′-j:4″,3″-n][1,4]oxazacyclopentadecin-14-yl]ethan-1-ol]: the IC50 in [1] was found to be 0.13 nM; in assay [2] it was 8.82 nM; in assay [3], 9.27 nM; in assay [4], 1.35 nM; in assay [5], 0.79 nM; in assay [6] it was 0.71 nM. The concentration for half-maximal inhibition (IC50) in assay [7] amounted to 1.34 nM; in assay [8], 0.9 nM; in [9] it was 0.63 nM; in assay [10], 1.81 nM; in assay [11], 0.22 nM; in assay [12], 0.39 nM. Besides, half-maximal inhibition in [13] (IC50) required 0.71 nM.

As for `CCOc1nn(CCO)c2c1/C=C/c1n[nH]c3cnc(cc13)-c1cnn(C)c1O[C@@H](C)CN(C1CC1)C2` [Ex. 30, 2-[(10S,17E)-12-cyclopropyl-16-ethoxy-8,10-dimethyl-2,8,10,11,12,13-hexahydro-14H-5,3-(azenometheno)tripyrazolo[3,4-f:3,4′-j:4″,3″-n][1,4]oxazacyclopentadecin-14-yl]ethan-1-ol], the 50% inhibitory concentration (IC50) turned out to be 0.14 nM in assay [1]; 1.96 nM in assay [2]; 14 nM in assay [3]; 3.64 nM in [4]; 0.19 nM in [5]; 0.65 nM in assay [6]. Further, the IC50 in [7] is 3.31 nM; in assay [8] it was 1.02 nM; in assay [9] it was 0.49 nM; in [10], 4.44 nM; in assay [11], 0.15 nM; in assay [12] it was 0.5 nM. The IC50 in [13] came to 0.15 nM.

As for `CCOc1nn(CCO)c2c1/C=C/c1n[nH]c3cnc(cc13)-c1c(C)nn(C)c1O[C@@H](C)[C@H]1CCCN1C2` [Ex. 32, 2-[(8aR,9S,19E)-1-ethoxy-9,11,13-trimethyl-7,8,8a,9,11,17-hexahydro-6H-14,16-(azenometheno)tripyrazolo[3,4-f:3′,4′-j:4″,3″-n]pyrrolo[2,1-c][1,4]oxazacyclopentadecin-3(4H)-yl]ethan-1-ol], the IC50 in assay [1] was 0.07 nM; in [2] it was 1.39 nM; in [3] it was 9.53 nM; in assay [4], 1.08 nM; in assay [5], 0.77 nM; in [6], 0.48 nM. Besides, the IC50 was determined as 1.48 nM in assay [7]; 0.87 nM in [8]; 1.09 nM in assay [9]; 0.54 nM in assay [10]; 0.33 nM in assay [11]; 0.25 nM in assay [12]. The IC50 in assay [13] was 0.63 nM.

Turning to `CCOc1nn(CCO)c2c1/C=C/c1n[nH]c3cnc(cc13)-c1c(C)nn(C)c1O[C@H](C)[C@H]1CCCN1C2` [Ex. 33, 2-[(8aR,9R,19E)-1-ethoxy-9,11,13-trimethyl-7,8,8a,9,11,17-hexahydro-6H-14,16-(azenometheno)tripyrazolo[3,4-f:3′,4′-j:4″,3″-n]pyrrolo[2,1-c][1,4]oxazacyclopentadecin-3(4H)-yl]ethan-1-ol], the IC50 in assay [1] worked out at 0.11 nM; in [2], 1.1 nM; in assay [3], 17.6 nM; in [4], 1.5 nM; in assay [5] it was 0.31 nM; in assay [6], 1.07 nM. The IC50 in [7] came out at 2.38 nM; in assay [8], 1.6 nM; in assay [9] it was 0.66 nM; in assay [10], 0.58 nM; in assay [11], 0.15 nM; in assay [12], 0.44 nM. This molecule displayed an IC50 in assay [13] of 0.17 nM.

On to `CCOc1nn([C@@H](C)CO)c2c1/C=C/c1n[nH]c3cnc(cc13)-c1c(C)nn(C)c1O[C@H](C)CN(C)C2` [Ex. 35, (2S)-2-[(10R,17E)-16-ethoxy-6,8,10,12-tetramethyl-2,8,10,11,12,13-hexahydro-14H-5,3-(azenometheno)tripyrazolo[3,4-f:3′,4′-j:4″,3″-n][1,4]oxazacyclopentadecin-14-yl]propan-1-ol], for which the half-inhibitory concentration (IC50) in assay [1] was found to be 0.14 nM; in [2], 3.05 nM; in assay [3] it was 15.1 nM; in [4], 1.56 nM; in [5] it was 0.41 nM; in assay [6], 0.46 nM. Further, the IC50 was determined as 1.25 nM in [7]; 0.89 nM in assay [8]; 0.66 nM in assay [9]; 2.56 nM in assay [10]; 0.22 nM in assay [11]; 0.51 nM in [12]. Also, in assay [13], the concentration for half-maximal inhibition (IC50) worked out at 0.24 nM.

Consider `CCOc1nn(CCO)c2c1/C=C/c1n[nH]c3c(C)nc(cc13)-c1cnn(C)c1O[C@H](C)CN(C)C2` [Ex. 38, 2-[(10R,17E)-16-ethoxy-8,10,12,20-tetramethyl-2,8,10,11,12,13-hexahydro-14H-5,3-(azenometheno)tripyrazolo[3,4-f:3′,4′-j:4″,3″-n][1,4]oxazacyclopentadecin-14-yl]ethan-1-ol], for which the concentration for half-maximal inhibition (IC50) in assay [1] was determined as 6.5 nM; in assay [2], 27.1 nM; in assay [3], 47.5 nM; in assay [4] it was 18.8 nM; in assay [5], 0.25 nM; in [6] it was 22.1 nM. Moreover, the 50% inhibitory concentration (IC50) came to 3.11 nM in [7]; 4.01 nM in [8]; 0.54 nM in assay [9]; 48.8 nM in [10]; 0.24 nM in assay [11]; 7.9 nM in [12]. This molecule also returned an IC50 in [13] of 1.9 nM.

Turning to `CCOc1nn(CCO)c2c1/C=C/c1n[nH]c3cnc(cc13)-c1c(C)nn(C)c1OC[C@H]1CCCN1C2` [Ex. 39], the IC50 is 0.27 nM in assay [1]; 26.4 nM in assay [2]; 22.7 nM in assay [3]; 2.11 nM in [4]; 0.5 nM in assay [5]; 6.08 nM in [6]. Besides, the half-maximal inhibitory concentration (IC50) was found to be 2.18 nM in [7]; 1.87 nM in assay [8]; 0.85 nM in [9]; 6.57 nM in [10]; 0.32 nM in [11]; 0.63 nM in assay [12]. The molecule also had an IC50 in assay [13] of 0.48 nM.
